Assay results from patent publication US11584766B2, “Nicotinamide phosphoribosyltransferase inhibitors and methods for use of the same” (THE TRUSTEES OF INDIANA UNIVERSITY, priority 2018, dated 2023).
“Also recorded” adds a separate entry of the source. Where two headings read alike, the source gives them in different places.

Legend:
[1] = target: T1, NAMPT (Homo sapiens, UniProt P43490); experiment: CycLex NAMPT Colorimetric Assay; format: biochemical; details: for IC50: CycLex NAMPT Colorimetric Assay Kit, read-out: NAMPT Inhibition IC50
T1 construct: purchased MBL International Corporation (CycLex NAMPT Colorimetric Assay Kit Ver.2)
Experimental: The ability of the compounds of the disclosure to inhibit NAMPT was determined using the CycLex NAMPT Colorimetric Assay Kit Ver.2 by MBL International Corporation.
The assay detects NAMPT activity in recombinant NAMPT or endogenous NAMPT immunoprecipiated from cell lysates according to the scheme shown in FIG. 3. In this method, NAMPT converts nicotinamide to nicotinamide mononucleotide (“NMN”). Subsequently, nicotinamide mononucleotide adenylyltransferase 1 (“NMNAT1”) converts NMN to NAD^+. Resultant NAD^+ can be measured by enzyme cycling reaction using alcohol dehydrogenase (“ADH”), diaphorase and WST-1.

[2] = tested on: human pulmonary artery smooth muscle cells (hPASMCs); experiment: BrdU Assay (proliferation), hPASMC; format: cell-based
Experimental: (§1) The effect of the compounds disclosed herein on the viability, proliferation, and apoptosis of human pulmonary artery endothelial cells (“hPAECs,”) and human pulmonary artery smooth muscle cells (“hPASMCs”) was determined using the PrestoBlue Assay (viability), CYQuant Direct or BrdU Assay (proliferation) or Tunel Assay (apoptosis), as described below.
(§2) HPAECs (1×10^4 cells/well) or HPASMCs (2.5×10^3 cells/well) were seeded in 96-well plates for 24 h in full-serum tissue culture medium. The full medium was removed prior to treatment with a NAMPT inhibitor prepared in medium containing 0.1% serum. NAMPT inhibitors were solubilized in 100% DMSO, unless otherwise indicated, prior to preparation of the dose response curve in 100% DMSO. The treatment dose response curve was diluted in 0.1% serum tissue culture medium and administered to cells for 24 h. DMSO diluted in the same medium was used as the vehicle control. Cell viability was measured according to the manufacturer's protocol by adding the PrestoBlue Cell Viability Reagent (ThermoFisher Scientific, #A13261) to cells for 20 min at 37° C. in a tissue culture incubator, followed by reading fluorescence at ex560/em590. Cell proliferation was measured, either in the same wells or in separate experiments, by adding the CyQuant Direct Confirmation Reagent (ThermoFisher Scientific, #C35011) for 1 h at 37° C. in a tissue culture incubator, followed by reading fluorescence at ex485/em538. Proliferation was also measured, in separate experiments, using the BrdU Cell Proliferation Assay (Calbiochem, #QIA58). After treatment with a NAMPT inhibitor for 24 h, BrdU was added to the cells in the presence of the inhibitor, for an additional 24 h and BrdU incorporation was detected according to the manufacturer's protocol. Apoptosis was analyzed by seeding cells (1×10^5 cells/well) in 6-well plates for 24 h in full-serum medium, followed by treatment with a NAMPT inhibitor for 24 h in full-serum medium. Tunel staining and detection was performed using the Tunel Assay Kit (Abcam, #ab66110) according to the manufacturer's protocol.

[3] = tested on: human pulmonary artery endothelial cells (hPAECs); experiment: BrdU Assay (proliferation), hPAEC; format: cell-based; details: for IC50: Homo sapiens, Endothelial cell; for effect on HPAEC proliferation (BrdU assay): dose response, FIG. 6
Experimental: as §1, §2

[4] = tested on: human pulmonary artery smooth muscle cells (hPASMCs); experiment: PrestoBlue Assay (viability), hPASMC; format: cell-based; details: for effect on HPASMC viability: dose response, FIG. 8; for IC50: hPASMC, 24 h treatment
Experimental: as §1, §2

[5] = tested on: human pulmonary artery smooth muscle cells (hPASMCs); experiment: CyQUANT Direct Assay (proliferation), hPASMC; format: cell-based; details: dose response, FIG. 9
Experimental: as §1, §2

[6] = Solubility (2.5% v/v DMSO/water); format: physicochemical
[7] = tested on: human pulmonary artery endothelial cells (hPAECs); experiment: PrestoBlue Assay (viability), hPAEC; format: cell-based; details: for effect on HPAEC viability: dose response, FIG. 4; for IC50: hPAEC, 24 h treatment
Experimental: as §1, §2

[8] = tested on: human pulmonary artery smooth muscle cells (hPASMCs); experiment: Tunel Assay (apoptosis), hPASMC; format: cell-based
Experimental: as §1
HPAECs (1×10^4 cells/well) or HPASMCs (2.5×10^3 cells/well) were seeded in 96-well plates for 24 h in full-serum tissue culture medium. The full medium was removed prior to treatment with a NAMPT inhibitor prepared in medium containing 0.1% serum. NAMPT inhibitors were solubilized in 100% DMSO, unless otherwise indicated, prior to preparation of the dose response curve in 100% DMSO. […] Cell viability was measured according to the manufacturer's protocol by adding the PrestoBlue Cell Viability Reagent (ThermoFisher Scientific, #A13261) to cells for 20 min at 37° C. in a tissue culture incubator, followed by reading fluorescence at ex560/em590. Cell proliferation was measured, either in the same wells or in separate experiments, by adding the CyQuant Direct Confirmation Reagent (ThermoFisher Scientific, #C35011) for 1 h at 37° C. in a tissue culture incubator, followed by reading fluorescence at ex485/em538. Proliferation was also measured, in separate experiments, using the BrdU Cell Proliferation Assay (Calbiochem, #QIA58). […]

[9] = tested on: human pulmonary artery endothelial cells (hPAECs); experiment: CyQUANT Direct Assay (proliferation), hPAEC; format: cell-based; details: for effect on HPAEC proliferation (CYQuant Direct assay): dose response, FIG. 5; for IC50: hPAEC, 24 h treatment
Experimental: as §1, §2

[10] = tested on: human pulmonary artery endothelial cells (hPAECs); experiment: Tunel Assay (apoptosis), hPAEC; format: cell-based; details: for IC50: hPAEC; for effect on HPAEC apoptosis: dose response, FIG. 7
Experimental: as §1, §2

[11] = Plasma concentration and biochemical parameters in MCT-induced rats; format: in vivo, rat
Excerpt: Moreover, significant abnormalities in biochemical parameters and electrolytes were not observed.

[12] = tested on: monocrotaline (MCT)-induced pulmonary hypertension; experiment: MCT-induced pulmonary hypertension in rats; format: in vivo, rat; details: 5 mg/kg every other day IP, days 22-35
Experimental: (§3) The ability of the compounds disclosed herein to attenuate pulmonary vascular remodeling associated with pulmonary arterial hypertension was determined using monocrotaline (“MCT”)-induced pulmonary hypertension as well as Sugen-Hypoxia-induced pulmonary hypertension in rats.
MCT 60 mg/kg IP was injected in Sprague Dawley rats. After 21 days when PH was established DGMS-RARI (5 mg/kg every other day) was injected intraperitonealy from days 22-35. At day 35 PH assessments (RVSP measurements via right heart catheterization, RVH measurement via assessment of the ratio between the weight of the right ventricle over the weight of the left ventricle+septum and pulmonary vascular remodeling assessment of H&E stained pulmonary arteries) were performed.

[13] = tested on: HepG2 cells; experiment: Seahorse XF Metabolism Assay (Cell Energy Phenotype Test); format: cell-based; set-up: Baseline OCR / Stressed OCR / Baseline ECAR / Stressed ECAR: unit not given here
Experimental: The effect of the compounds disclosed herein on metabolism was determined using the Seahorse XF Cell Energy Phenotype Test Kit by Agilent Technologies. See Agilent Seahorse XF Cell Energy Phenotype Test Kit, User Guide, Manual Part Number 103325-400, Kit Part Number 103325-100, First Edition, March 2017 Agilent Technologies, Inc. This assay measures mitochondrial respiration and glycolysis under baseline and stressed conditions to determine baseline phenotype, stressed phenotype, and metabolic potential.

[14] = tested on: Sugen-Hypoxia-induced pulmonary hypertension; experiment: Sugen-Hypoxia-induced pulmonary hypertension in rats; format: in vivo, rat; details: 5 mg/kg every other day IP, days 35-49
Experimental: as §3
Sugen 10 mg/kg IP was injected in Sprague Dawley rats who were then exposed to 10% hypoxia for 21 days. After 21 rats were returned to normoxia for 14 days. After 35 when PH was established DGMS-RARI (5 mg/kg every other day) was injected intraperitonealy from days 35-49. At day 49 PH assessments (RVSP measurements via right heart catheterization, RVH measurement via assessment of the ratio between the weight of the right ventricle over the weight of the left ventricle+septum and assessment of right ventricular function via echocardiography) were performed.

[15] = tested on: vascular remodeling caused by PAH; details: rat models; cited from earlier work
[16] = Homo sapiens, Endothelial cell, 24 h

T1 sequence (P43490 whole entry): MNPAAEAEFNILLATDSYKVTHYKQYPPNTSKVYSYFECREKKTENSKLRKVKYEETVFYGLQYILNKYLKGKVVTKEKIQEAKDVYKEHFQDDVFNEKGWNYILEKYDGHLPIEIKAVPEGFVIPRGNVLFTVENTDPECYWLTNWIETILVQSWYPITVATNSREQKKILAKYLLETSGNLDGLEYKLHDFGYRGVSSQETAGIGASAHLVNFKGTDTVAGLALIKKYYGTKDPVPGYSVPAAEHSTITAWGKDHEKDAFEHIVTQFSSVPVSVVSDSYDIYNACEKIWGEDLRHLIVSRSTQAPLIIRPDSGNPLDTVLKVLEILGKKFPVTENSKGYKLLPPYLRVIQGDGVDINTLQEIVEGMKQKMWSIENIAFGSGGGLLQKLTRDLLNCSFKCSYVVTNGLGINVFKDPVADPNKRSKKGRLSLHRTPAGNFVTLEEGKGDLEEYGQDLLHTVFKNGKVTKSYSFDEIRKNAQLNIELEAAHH

O=C(/C=C/c1cccnc1)NCCCCCCN1c2ccccc2CCc2ccccc21 [DGMS-RAR-2]
IC50 [1]: 80 nM
IC50 ([2]; Homo sapiens): 1.5 µM
IC50 [3]: 1.31 µM
effect on HPAEC proliferation (BrdU assay) [3]: dose-dependently decrease cell proliferation

CC[Si]1(CC)c2ccccc2N(C(=O)CCCCCNC(=O)/C=C/c2cccnc2)C1C.Cl (centres unmarked) [DGMS-RAR-5•HCl]
inhibition at 10 µM ([1]; 10 μM): 98%
IC50 [1]: 23 nM
effect on HPASMC viability [4]: dose-dependently decrease cell viability
effect on HPASMC proliferation (CYQuant Direct assay) [5]: dose-dependently decrease cell proliferation
Solubility (2.5% v/v DMSO/water) [6]: Good

Cl.O=C(/C=C/c1cccnc1)NCCCCCC(=O)N1c2ccccc2CC1c1ccccc1 (centres unmarked) [DGMS-RAR-7•HCl]
IC50 [1]: 15 nM
IC50 [2]: 63.9 µM
IC50 ([4]; Homo sapiens, 24 h): 31.1 µM
effect on HPASMC viability [4]: dose-dependently decrease cell viability
effect on HPASMC proliferation (CYQuant Direct assay) [5]: dose-dependently decrease cell proliferation
effect on HPAEC viability [7]: dose-dependently decrease cell viability; also recorded: reduction
IC50 [7]: 13.9 µM
IC50 ([8]; Homo sapiens): 116 µM
effect on HPAEC proliferation (CYQuant Direct assay) ([9]; listed as DGMS-RAR-7-HCl): dose-dependently decrease cell proliferation
effect on HPAEC proliferation (CYQuant Direct assay) ([9]; listed as DGMS-RAR-7.HCl): reduction
IC50 [9]: 26.6 µM
Solubility (2.5% v/v DMSO/water) [6]: Good
effect on HPAEC proliferation (BrdU assay) [3]: dose-dependently decrease cell proliferation
IC50 ([10]; Homo sapiens, Endothelial cell): 183 µM
effect on HPAEC apoptosis [10]: dose-dependently decrease apoptosis

O=C(/C=C/c1cccnc1)NCCCCCC(=O)N1c2ccccc2CC1c1ccccc1 (centres unmarked) [DGMS-RAR-7]
IC50 [1]: 41 nM
IC50 [2]: 35400 µM
effect on HPAEC viability [7]: dose-dependently decrease cell viability
IC50 [7]: 1.59 µM
effect on HPAEC proliferation (CYQuant Direct assay) [9]: dose-dependently decrease cell proliferation
IC50 [9]: 1 µM
IC50 [3]: 95.8 µM
effect on HPAEC proliferation (BrdU assay) [3]: dose-dependently decrease cell proliferation

O=C(/C=C/c1cccnc1)NCCCCCC(=O)N1c2ccccc2CC1c1ccccc1 (centres unmarked) [DGMS-RAR-7•HO3SMe]
effect on HPASMC viability [4]: dose-dependently decrease cell viability
IC50 [4]: 26.6 µM
effect on HPASMC proliferation (CYQuant Direct assay) [5]: dose-dependently decrease cell proliferation
effect on HPAEC viability [7]: dose-dependently decrease cell viability; also recorded: reduction
IC50 [7]: 17.1 µM
IC50 [8]: 94.1 µM
effect on HPAEC proliferation (CYQuant Direct assay) ([9]; listed as DGMS-RAR-7-HO3SMe): dose-dependently decrease cell proliferation
effect on HPAEC proliferation (CYQuant Direct assay) ([9]; listed as DGMS-RAR-7.HO3SMe): reduction
IC50 [9]: 31.9 µM
effect on HPAEC proliferation (BrdU assay) [3]: dose-dependently decrease cell proliferation
effect on HPAEC apoptosis [10]: dose-dependently decrease apoptosis
IC50 [10]: 117 µM

O=C(/C=C/c1cccnc1)NCCCCCCn1c(-c2ccccc2)cc2ccccc21 [DGMS-RARI]
inhibition at 10 µM [1]: 98%
IC50 [1]: 14 nM
abnormalities in biochemical parameters and electrolytes ([11]; 5 mg/kg): not observed
average concentration in rat plasma ([11]; 5 mg/kg intravenously, intraperitoneally and orally): decreased with time
degree of pulmonary vascular remodeling [12]: decreased
degree of right ventricular hypertrophy [12]: decreased
severity of elevations in RVSP [12]: decreased
effect on HPASMC viability [4]: dose-dependently decrease cell viability
Baseline ECAR ([13]; HepG2, 80 nM): 16.16
Baseline OCR ([13]; HepG2, 80 nM): 98.19
Metabolic Potential (% Baseline ECAR) ([13]; HepG2, 80 nM): 288.54 % Baseline ECAR
Metabolic Potential (% Baseline OCR) ([13]; HepG2, 80 nM): 154.82 % Baseline OCR
Stressed ECAR ([13]; HepG2, 80 nM): 46.64
Stressed OCR ([13]; HepG2, 80 nM): 152.08
Baseline ECAR ([13]; HepG2, 2 uM): 12.28
Baseline OCR ([13]; HepG2, 2 uM): 73.92
Metabolic Potential (% Baseline ECAR) ([13]; HepG2, 2 uM): 334.84 % Baseline ECAR
Metabolic Potential (% Baseline OCR) ([13]; HepG2, 2 uM): 154.18 % Baseline OCR
Stressed ECAR ([13]; HepG2, 2 uM): 37.11
Stressed OCR ([13]; HepG2, 2 uM): 111.06
Baseline ECAR ([13]; HepG2, 10 uM): 18.28
Baseline OCR ([13]; HepG2, 10 uM): 60.26
Metabolic Potential (% Baseline ECAR) ([13]; HepG2, 10 uM): 194.22 % Baseline ECAR
Metabolic Potential (% Baseline OCR) ([13]; HepG2, 10 uM): 148.94 % Baseline OCR
Stressed ECAR ([13]; HepG2, 10 uM): 31.23
Stressed OCR ([13]; HepG2, 10 uM): 89.62
inhibition at 10 µM ([13]; Homo sapiens, HepG2 cells, high doses (10 uM), read-out: inhibition of the maximal oxygen consumption rate): ~30%
effect on cellular respiration ([13]; physiological doses (≤80 nM)): no effect on cellular respiration
IC50 [7, 16]: 117 µM
effect on HPAEC viability [7]: dose-dependently decrease cell viability
IC50 [9, 16]: 2.88 µM
effect on HPAEC proliferation (CYQuant Direct assay) [9]: dose-dependently decrease cell proliferation
degree of right ventricular dysfunction [14]: decreased
degree of right ventricular hypertrophy [14]: decreased
severity of elevations in RVSP [14]: decreased

N#CN=C(NCCCCCCOc1ccc(Cl)cc1)Nc1ccncc1 [CHS-828]
vascular remodeling caused by PAH [15]: prevent and reverse
